Where two headings read alike, the source gives them in different places.
How the values were obtained:
[1] = system: 3D7 Plasmodium falciparum strain; assay: In vitro antiplasmodial activity on Plasmodium falciparum (SYBR Green I); format: cell-based; details: for IC50: chloroquine-sensitive 3D7 strain, 44 h incubation
Description: The strain was maintained in O+ human erythrocytes in an albumin-supplemented RPMI medium under continuous culture using the candle-jar method. […] After 44 h of incubation at 37 °C, the plates were subjected to 3 freeze-thaw cycles to achieve complete hemolysis. The parasite lysis suspension was diluted 1:5 in lysis buffer. In vitro susceptibility is expressed as the concentration inhibiting 50% of the parasite's growth (IC50). Parasite growth was determined using SYBR® Green I, a dye with strong fluorescence enhancement upon contact with DNA. Incorporation of the SYBR® Green I (Fisher Scientific, Illkirch-Graffenstaden, France) in parasite DNA was measured using the Master […]® (Eppendorf, Montesson, France) according to the following program to increase the SYBR® Green I incorporation: 90 °C (1 min) and a decrease to 10 °C over 5 min followed by fluorescence reading. Untreated infected and uninfected erythrocytes were used as controls and chloroquine diphosphate (Sigma, Lezennes, France) was used as a reference drug. IC50 was calculated by IC-estimator online software (www.antimalarial-icestimator.net, accessed on 18 January 2018).

[2] = Cytotoxicity, Alamar Blue; format: cell-based, human; details: human, 72 h treatment
Description: (§1) Cells were seeded in 96-well plates (20,000 cells/mL) and incubated for 24 h, then treated with the drug for 72 h. […] Fluorescent viable cells were monitored after 5 h of incubation at 37 °C at a wavelength of 530 nm for excitation and 590 nm for emission in an FL600 luminescence spectrometer (Biotek, Colmar, France).

[3] = system: AB943 primary human dermal fibroblast cell line; assay: Cytotoxicity, Alamar Blue; format: cell-based; details: for Selectivity Index CC50/IC50: CC50 on AB943 fibroblasts / IC50 on 3D7
Description: as §1

[4] = Heme-binding assay by mass spectrometry with collision-induced dissociation of adducts (DV50); details: energy dissociating 50% of the heme-Fe(III) adduct, NA = no adduct
Description: Hemin (iron-containing porphyrin with chlorine counterion) and the crude ethanolic extract were dissolved in DMSO at 5 mM and 10 mg/mL, respectively. Pure compounds were dissolved in DMSO at the concentration of 10 mM, except for Tween 20, which was dissolved in water at 10 µM. Citric-buffer-saturated octanol (CBSO) was prepared by mixing 5 mL of citric acid, 50 mM and pH 5.2, and 15 mL of N-octanol (anhydrous, ≥99%) and letting it settle at 23 °C for 30 min. The upper phase of the CBSO biphasic system was used. Autosampler 1260 infinity G1367E 1260 Hip ALS (Agilent Technologies, Santa Clara, CA, USA) was used to perform the automatic mixing of aliquots in 384-well plates. The incubation mixture was as follows: Compound 5 µL + heme 5 µL + Tween 5 µL + organic phase of CBSO 85 µL. Samples were injected in infusion mode (direct injection) in a 6530 Accurate-Mass QToF LC–MS instrument (Agilent Technologies) with the following settings: Positive ESI mode and 2 GHz acquisition rate. […] In positive-ion mode, purine ion C5H4N4 [M + H]^+ (m/z 121.050873) and the hexakis (1H,1H,3H-tetrafluoropropoxy)-phosphazene ion C18H18F24N3O6P3 [M+H]^+ (m/z 922.009798) were used as internal lock masses. Full scans were acquired at a resolution of ca 11 000 (at m/z 922).
To obtain heme-Fe(II) from hemin (heme-Fe(III)), glutathione (50 mM in water) was mixed with hemin (5 mM in DMSO) in a ratio of 1:1 and left to incubate for 40 min. This solution was used as the heme solution, as described above.
Dissociation in the collision chamber was caused by increasing collision energies from 0 to 56 eV. The MS–MS targeted mode, an isolation width of m/z 1.3, and the flow injection analysis mode (FIA) were applied. MS–MS parameters were the same as described above. The results were plotted, and a sigmoidal regression curve allowed us to calculate the energy necessary to dissociate 50% of adducts (DV50) using GraphPrism software version 5.00 (San Diego, CA, USA) or a Python script.
Ethanolic extract and hemin (heme-Fe(III)) were mixed and injected using infusion mode for the MS–MS experiment. Three collision energies were used: 30, 50, and 70 eV. The ten most intense ions (top 10) per cycle were selected. MS–MS acquisition parameters were as follows: m/z range of 100–1700, default charge of 1, a minimum intensity of 5000 counts, 3 spectra/s, and isolation width of 1.3 m/z. A list of compounds was generated by the “find by auto MSMS” algorithm of MassHunter software (Qualitative Analysis B.07.00, Agilent Technologies). The “extract average MS–MS spectrum” mode was used to summarize and average the results of the 3 collision energies. Exportation of generated spectra was performed in MGF format using the option “entire data file”. The information generated was uploaded onto the online platform GNPS (global natural product social network). Parameters used for the algorithm were as follows: Precursor ion mass tolerance = 1; fragment ion mass tolerance = 0.3; min pairs cos = 0.7; minimum matched fragment ions = 3; and minimum cluster size = 1. From the data, a network was calculated measuring correlations and was plotted using Cytoscape 3.5.1. […] An alkaloid extract from Cinchona pubescens Vahl (Rubiaceae) and eight antiplasmodial drugs (chloroquine, quinine, amodiaquine, ketoconazole, miconazole, mefloquine, praziquantel, and sulfadoxine) were used as examples of the visualization of adduct fragments by MN. The methodology and conditions were the same as described above.

Trypanosoma brucei = system: Trypanosoma brucei; design: method as in PMID 28000515; details: read-out: IC50 against Trypanosoma brucei; cited from earlier work
[5] = system: 3D7 Plasmodium falciparum strain; details: artemisinin reference value; read-out: 3D7 Sensitive Strain IC50; cited from earlier work
[6] = AB943 primary human dermal fibroblast cells

## O=C1C=Cc2ccccc21 [Compound 12, 1H-inden-1-one]
[1]; Plasmodium falciparum
  IC50: > 100 µM
[2]; [6]
  CC50 at 72 h: > 100 µM
[3]
  Selectivity Index CC50/IC50: 1

## COc1cc(OC)c2c(c1C)OC(c1ccccc1)CC2=O (stereo not drawn) [Compound 9, dimethyl cryptostrobin]
[4]
  DV50: 7.68 eV
[1]; Plasmodium falciparum
  IC50: 85 µM
[2]; [6]
  CC50 at 72 h: > 100 µM
[3]
  Selectivity Index CC50/IC50: 1.2

## COc1cc(OC)c(C(=O)/C=C/c2ccccc2)c(O)c1C [Compound 1, aurentiacin]
[4]
  DV50: 5.15 eV
[1]; Plasmodium falciparum
  IC50: 2.25 µM
[2]; [6]
  CC50 at 72 h: 68.5 µM
[3]
  Selectivity Index CC50/IC50: 30.4

## COc1ccc(CCNC(=O)c2ccccc2)cc1 [Compound 11, N-Benzoyltyrarnine methyl ether]
[4]
  DV50: 9.45 eV
[1]; 3D7 strain
  antiplasmodial activity (in words): no antiplasmodial activity
[1]; Plasmodium falciparum
  IC50: > 100 µM
[2]; [6]
  CC50 at 72 h: > 100 µM
[3]
  Selectivity Index CC50/IC50: 1

## COc1cc(O)cc(O)c1C(=O)/C=C/c1ccccc1 [Compound 3, cardamomin]
[4]
  DV50: 5.60 eV
[1]; Plasmodium falciparum
  IC50: 5.5 µM
Trypanosoma brucei
  IC50: 1.8 µM
[2]; read-out: AB943 Primary Human Fibroblast CC50
  CC50 at 72 h: 58 µM
[3]
  Selectivity Index CC50/IC50: 10.5

## COC(=O)C1=CC(O)C(O)(C(=O)/C=C/c2ccccc2)C1 (stereo not drawn) [Compound 10]
[1]; Plasmodium falciparum
  IC50: > 100 µM
[2]; [6]
  CC50 at 72 h: > 100 µM
[3]
  Selectivity Index CC50/IC50: 1

## COc1cc2c(c(O)c1C)C(=O)CC(c1ccccc1)O2 (stereo not drawn) [Compound 4, strobopinin 7-methyl ether]
[1]; Plasmodium falciparum
  IC50: 60 µM
[2]; [6]
  CC50 at 72 h: > 100 µM

## COc1c(C)c(O)c2c(c1C)OC(c1ccccc1)CC2=O (stereo not drawn) [Compound 5, 5-hydroxy-7-methoxy-6,8-dimethyl flavanone]
[1]; Plasmodium falciparum
  IC50: 33.2 µM
[2]; [6]
  CC50 at 72 h: 23 µM
[3]
  Selectivity Index CC50/IC50: <1

## pinocembrin [Compound 8]
[4]
  DV50: 8.68 eV
[1]
  IC50: 78 µM
[3]; 72 h treatment, read-out: AB943 Primary Human Fibroblast CC50
  CC50: > 100 µM

## C[C@@H]1CC[C@H]2[C@@H](C)C(=O)O[C@@H]3O[C@@]4(C)CC[C@@H]1[C@]32OO4 [ART, Artemisinin]
[5]
  IC50: 0.004 µM

## Cc1c(O)c(C)c2c(c1O)C(=O)CC(c1ccccc1)O2 (stereo not drawn) [Compound 6, desmethoxymatteucinol]
[1]; Plasmodium falciparum
  IC50: 71 µM
[2]; [6]
  CC50 at 72 h: > 100 µM
[3]
  Selectivity Index CC50/IC50: 1.4

## alpinetin [Compound 7]
[4]
  DV50: 8.40 eV
[1]
  IC50: 72 µM
[3]
  CC50: > 100 µM

## COc1cc(O)c(C)c(O)c1C(=O)/C=C/c1ccccc1 [Compound 2, 2′, 4′-dihydroxy-6′-methoxy-3′-methylchalcone]
[4]
  DV50: 5.93 eV
[1]; Plasmodium falciparum
  IC50: 51 µM
[2]; [6]
  CC50 at 72 h: > 100 µM
[3]
  Selectivity Index CC50/IC50: 1.9

## CCN(CC)CCCC(C)Nc1ccnc2cc(Cl)ccc12 (stereo not drawn) [CQ, Chloroquine, reference compound]
[4]
  DV50: 14.27 eV
[4]; listed as chloroquine
  DV50: above 14 eV

Reference: article PMC9656727, “Biodereplication of Antiplasmodial Extracts: Application of the Amazonian Medicinal Plant Piper coruscans Kunth” (Molecules, 2022)
